Test systems include SNB-75 CNS; SN12C renal; SF-268 CNS; NCI-H226 lung; UO-31 renal; HCC-2998 colon; IGROV1 ovarian; UACC-257 melanoma; HOP-92 NSCLC; BT-549 breast.
Test in all cases: growth of human tumour cells (NCI), 48 h

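Results reflect a 48-hour exposure of cells in 96-well plates to compound at five concentrations. GI50 = concentration required for 50% inhibition of growth. TGI: total growth inhibition.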 Some results are limits rather than exact numbers.

Regarding `CCCCCCCCCC1CC(=O)OC2=C1C(=O)CCC2` (stereo not drawn), the TGI with SNB-75 CNS, with SN12C renal, in the assay on SF-268 CNS, in the assay with NCI-H226 lung, with UO-31 renal and in the assay on HCC-2998 colon was greater than 100 µM each time. Further, the TGI in the assay with IGROV1 ovarian, in the assay with UACC-257 melanoma and in the assay on HOP-92 NSCLC was greater than 100 µM throughout.

Regarding `O=C(Nc1ccc(Cl)c(Cl)c1)c1ccc(NC2=C(Cl)C(=O)N(Cc3ccccc3)C2=O)cc1`, the GI50 with SNB-75 CNS was 16.1 µM; in the assay on SN12C renal, 10.9 µM; in the assay on SF-268 CNS it was 8.26 µM; in the assay with NCI-H226 lung, 7.33 µM; with BT-549 breast, 3.29 µM; in the assay with UO-31 renal it was 13.1 µM. Moreover, the results for the GI50 with IGROV1 ovarian and in the assay with UACC-257 melanoma were 2.71 µM and 3.67 µM, respectively. The TGI in the assay on SNB-75 CNS came to 56.4 µM; in the assay on SN12C renal it was 25.9 µM; in the assay on SF-268 CNS, 24 µM; with NCI-H226 lung it was 20.8 µM; with BT-549 breast, 10.6 µM; with UO-31 renal, 25.8 µM. Moreover, the TGI is 8.14 µM in the assay on IGROV1 ovarian and 11.9 µM in the assay on UACC-257 melanoma.

As for `O=C(Nc1ccc(Br)c2ccccc12)c1ccc2ccccc2c1O`, the TGI amounted to 8.68 µM in the assay on SNB-75 CNS; 24.9 µM in the assay with SN12C renal; 31.8 µM in the assay with SF-268 CNS; 6.39 µM in the assay with NCI-H226 lung; 11.3 µM with BT-549 breast; 12.9 µM in the assay on UO-31 renal. Besides, the TGI worked out at 20.9 µM with HCC-2998 colon, 16.4 µM with IGROV1 ovarian and 23.9 µM in the assay on UACC-257 melanoma.

In the case of `O=C(NC1CCC[C@H]1OC(=O)c1ccccc1)c1ccccc1` (stereo partly drawn), the TGI is 98.9 µM in the assay with SNB-75 CNS; greater than 100 µM in the assay on SN12C renal; greater than 100 µM in the assay with SF-268 CNS; 96.1 µM with NCI-H226 lung; greater than 100 µM with UO-31 renal; greater than 100 µM with IGROV1 ovarian. The TGI in the assay on UACC-257 melanoma and in the assay with HOP-92 NSCLC was greater than 100 µM each time.

On to `CC1(C)CC(=O)C(CC2C(=O)CCCC2=O)C(=O)C1`, for which the TGI in the assay with SNB-75 CNS, with SN12C renal, with SF-268 CNS, in the assay with NCI-H226 lung, in the assay on UO-31 renal and in the assay on HCC-2998 colon was greater than 100 µM each time. Moreover, the TGI with IGROV1 ovarian and in the assay with UACC-257 melanoma was greater than 100 µM each time.

Take `COC(=O)C1=C(C)NC(=S)NC1c1ccc(N(CCCl)CCCl)cc1Cl` (stereo not drawn): the TGI in the assay on SNB-75 CNS is greater than 100 µM; in the assay on SN12C renal, greater than 100 µM; in the assay with SF-268 CNS, 98.4 µM; with NCI-H226 lung, greater than 45.7 µM; with BT-549 breast, greater than 100 µM; in the assay with UO-31 renal it was greater than 80.7 µM. Besides, the TGI with IGROV1 ovarian is greater than 89.1 µM; in the assay with UACC-257 melanoma it was 44.5 µM; in the assay with HOP-92 NSCLC it was greater than 100 µM. In addition, the GI50 in the assay on BT-549 breast is 73.5 µM.

`NC(=O)NNC/C(Cl)=C(\Cl)C(=O)O`: the TGI with SNB-75 CNS, in the assay on SN12C renal, in the assay with SF-268 CNS, in the assay on NCI-H226 lung, with UO-31 renal and in the assay with HCC-2998 colon was greater than 100 µM throughout. Further, the TGI with IGROV1 ovarian and in the assay with UACC-257 melanoma was greater than 100 µM each time.

Regarding `COc1cc2c(cc1OCC(=O)Nc1ccc(Cl)cc1C(=O)c1ccccc1Cl)N=CC1CCCN1C2=O` (stereo not drawn), the GI50 in the assay with SNB-75 CNS was 14.2 µM; with SN12C renal it was 13.8 µM; in the assay on SF-268 CNS it was 12.9 µM; in the assay with NCI-H226 lung it was 17.6 µM; in the assay on UO-31 renal it was 7.97 µM; in the assay on HCC-2998 colon, 13.4 µM. For the same molecule, the GI50 is 3.9 µM in the assay on IGROV1 ovarian, 16.6 µM in the assay with UACC-257 melanoma and 10.9 µM with HOP-92 NSCLC. The TGI in the assay with SNB-75 CNS was 28.8 µM; in the assay on SN12C renal, 27.8 µM; in the assay with SF-268 CNS, 33 µM; in the assay with NCI-H226 lung, 34.3 µM; with UO-31 renal, 20.5 µM; in the assay on HCC-2998 colon it was 34.3 µM. The TGI in the assay with IGROV1 ovarian was determined as 16.4 µM; in the assay with UACC-257 melanoma it was 30.2 µM; with HOP-92 NSCLC, 28.8 µM.

With `COc1ccc(C(C2=C(O)CC(C)OC2=O)C2=C(O)CC(C)OC2=O)cc1` (stereo not drawn), the TGI with SNB-75 CNS, with SN12C renal, with SF-268 CNS, with NCI-H226 lung, with UO-31 renal and in the assay on HCC-2998 colon was greater than 100 µM throughout. For the same molecule, the TGI in the assay on IGROV1 ovarian and in the assay on UACC-257 melanoma was greater than 100 µM in each case.

On to `CC1C(c2ccccc2)N(C)C(c2ccccc2)C(C)C1(O)c1ccccc1` (stereo not drawn), for which the TGI in the assay with SNB-75 CNS, with SN12C renal, in the assay with SF-268 CNS, with NCI-H226 lung, with UO-31 renal and in the assay with HCC-2998 colon was greater than 100 µM throughout. Moreover, the TGI in the assay on IGROV1 ovarian, with UACC-257 melanoma and with HOP-92 NSCLC was greater than 100 µM each time.

As for `Cc1cc(-c2ccccc2)nc(Nc2cc3ccccc3[nH]2)n1`, the TGI in the assay on SN12C renal, in the assay on SF-268 CNS, with NCI-H226 lung, with UO-31 renal, in the assay on HCC-2998 colon and with IGROV1 ovarian was greater than 100 µM throughout. The TGI with UACC-257 melanoma and in the assay with HOP-92 NSCLC was greater than 100 µM in each case.

Take `CCO/C=C\C12CCCC1NC(c1ccccc1)(c1ccccc1)O2` (stereo not drawn): the TGI is 78.5 µM with SNB-75 CNS; 78.3 µM in the assay with SN12C renal; greater than 100 µM with SF-268 CNS; greater than 100 µM in the assay on NCI-H226 lung; 73.6 µM with UO-31 renal; 71.1 µM with IGROV1 ovarian. Further, the TGI in the assay on UACC-257 melanoma came out at 85.5 µM; in the assay on HOP-92 NSCLC, 52.3 µM.

In the case of `COc1cc(/C=C2\[C@@H]3NC(Cc4c(OC)c(C)c(OC)c(OC)c43)C(=O)N2Cc2ccccc2)c(OC)c(C)c1OC`, the TGI was greater than 100 µM in the assay with SNB-75 CNS; greater than 100 µM in the assay with SN12C renal; greater than 100 µM in the assay on SF-268 CNS; greater than 100 µM in the assay on NCI-H226 lung; 80.5 µM with UO-31 renal; greater than 100 µM in the assay on HCC-2998 colon. In addition, the results for the TGI in the assay with IGROV1 ovarian, with UACC-257 melanoma and in the assay with HOP-92 NSCLC were greater than 100 µM, greater than 100 µM and 69.1 µM, respectively.
